In US9345247B2, “Azaindole carboxylic acid amides and azaindole thiocarboxylic acid amides for use as insecticides and acaricides” (BAYER CROPSCIENCE AG, priority 2012, dated 2016):
Read-outs that look alike come from different tables or passages of the source.

Experiments:
[1] = log P by HPLC on reversed-phase column (C18), EEC directive 79/831 Annex V.A8; format: physicochemical; details: for chromatographic logP: reversed-phase HPLC column (C18)
Protocol: a) The determination of the W by LC-MS in the acidic range is effected at pH 2.7, acetonitrile (contains 0.1% formic acid) and water as eluents; linear gradient from 10% acetonitrile to 95% acetonitrile, instrument: Agilent 1100 LC-System, Agilent MSD System, HTS PAL. The log P values reported in the tables and Preparation Examples above were determined in accordance with EEC directive 79/831 Annex V.A8 by HPLC (High Performance Liquid Chromatography) using a reversed-phase column (C18). Temperature 43° C. The calibration is effected with unbranched alkan-2-ones (having 3 to 16 carbon atoms), for which the log P values are known.

[2] = test system: larvae of the mustard beetle (Phaedon cochleariae); experiment: Phaedon cochleariae spray test (PHAECO); format: in vivo; details: for efficacy / pest or weed control at 100 g/ha: spray, after 7 days; for pest or weed control at 100 g/ha / percent efficacy (larval mortality) at 20 g/ha: Phaedon cochleariae, 168 h; for pest or weed control at 100 g/ha: read-out: efficacy; for percent efficacy (larval mortality) at 20 g/ha: PHAECO, 20 g of ai/ha, 7 d, read-out: % Efficacy dat
Protocol: Phaedon cochleariae—Spray Test (PHAECO)
To produce a suitable preparation of active compound, 1 part by weight of active compound is mixed with the stated amounts of solvent and emulsifier, and the concentrate is diluted with emulsifier-containing water to the desired concentration.
Discs of Chinese cabbage leaves (Brassica pekinensis) are sprayed with an active compound formulation of the desired concentration and, after drying, populated with larvae of the mustard beetle (Phaedon cochleariae).
After 7 days, the efficacy in % is determined. 100% means that all the beetle larvae have been killed; 0% means that no beetle larvae have been killed.
After the stated period of time, the effect in % is determined 100% means that all the beetle larvae have been killed; 0% means that no beetle larvae have been killed.

[3] = HPLC, acidic range pH 2.7, 43° C.
[4] = HPLC, acidic range pH 2.7, 43° C., read-out: log p

Structure (SMILES) | efficacy ([2]; 100 g/ha) [%] | log p [1, 3] | also measured
CCn1c(C(=O)NC(c2ccc(F)c(C(F)(F)F)c2)C(F)(F)F)cc2nc(C(=O)NC3CC3)ccc21 (stereo not drawn) [Compound 2, N^5-Cyclopropyl-1-ethyl-N^2-{2,2,2-trifluoro-1-[4-fluoro-3-(trifluoromethyl)phenyl]ethyl}-1H-pyrrolo[3,2-b]pyridine-2,5-dicarboxamide] | – | – | chromatographic logP ([1]; pH 2.7, final compounds of the synthesis examples, read-out: log P (HPLC-MS)): 3.78
CCn1c(C(=O)NC(c2cccc(C(F)(F)F)c2)C(F)(F)F)cc2cc(C(=O)NC3CC3)cnc21 (stereo not drawn) [Compound 3] | 100 | 3.19 | –
CCn1c(C(=O)NC(c2cccc(C(F)(F)F)c2)C(F)(F)F)cc2cc(C(=O)NC(C)C)c(C)nc21 (stereo not drawn) [Compound 4] | 100 | 3.74 | –
CCn1c(C(=O)NC(c2cccc(C(F)(F)F)c2)C(F)(F)F)cc2cc(C(=O)NC(CF)CF)c(C)nc21 (stereo not drawn) [Compound 8] | 100 | 3.67 | –
CCn1c(C(=O)NC(c2cccc(C(F)(F)F)c2)C(F)(F)F)cc2cc(C(=O)NCC(F)F)c(Cl)nc21 (stereo not drawn) [Compound 13] | 100 | 3.79 | –
CCn1c(C(=O)NC(c2cccc(C(F)(F)F)c2)C(F)(F)F)cc2cc(C(=O)NC(C)C)c(Cl)nc21 (stereo not drawn) [Compound 14] | – | – | pest or weed control at 100 g/ha ([2]; 100 g/ha): 100%; percent efficacy (larval mortality) at 20 g/ha [2]: 100%; chromatographic logP [1, 4]: 3.97
CCn1c(C(=O)NC(c2cc(Cl)c(F)c(Cl)c2F)C(F)(F)F)cc2cc(C(=O)NC3CC3)c(Cl)nc21 (stereo not drawn) [Compound 18] | 100 | 4.43 | –
CCn1c(C(=O)NC(c2cc(Cl)c(F)c(Cl)c2F)C(F)(F)F)cc2cc(C(=O)NC(C)C)c(Cl)nc21 (stereo not drawn) [Compound 19] | – | 4.62 | –
CCn1c(C(=O)NC(c2cc(Cl)c(F)c(Cl)c2)C(F)(F)F)cc2cc(C(=O)NC3CC3)c(Cl)nc21 (stereo not drawn) [Compound 20] | 100 | 4.23 | –
CCn1c(C(=O)NC(c2cc(Cl)c(F)c(Cl)c2)C(F)(F)F)cc2cc(C(=O)NC(C)C)c(Cl)nc21 (stereo not drawn) [Compound 21] | – | 4.44 | –
C#CCn1c(C(=O)NC(c2cccc(C(F)(F)F)c2)C(F)(F)F)cc2cc(C(=O)NC(C)C)c(Cl)nc21 (stereo not drawn) [Compound 24] | 100 | 3.68 | efficacy ([2]; 500 g/ha): 100%
CCCNC(=O)c1cc2cc(C(=O)NC(c3cccc(C(F)(F)F)c3)C(F)(F)F)n(CC)c2nc1Cl (stereo not drawn) [Compound 34] | – | – | pest or weed control at 100 g/ha ([2]; 100 g/ha): 100%; percent efficacy (larval mortality) at 20 g/ha [2]: 100%; chromatographic logP [1, 4]: 3.99
CCn1c(C(=O)NC(c2cccc(C(F)(F)F)c2)C(F)(F)F)cc2cc(C(=O)NC(CF)CF)c(Cl)nc21 (stereo not drawn) [Compound 35] | – | 3.83 | –
CCn1c(C(=O)NC(c2cccc(C(F)(F)F)c2)C(F)(F)F)cc2cc(C(=O)NC(C)CF)c(Cl)nc21 (stereo not drawn) [Compound 36] | – | 3.83 | –
CCn1c(C(=O)NC(c2cccc(C(F)(F)F)c2)C(F)(F)F)cc2cc(C(=O)NCc3ccccn3)c(Cl)nc21 (stereo not drawn) [Compound 37] | 100 | 3.18 | –
CCn1c(C(=O)NC(c2cccc(C(F)(F)F)c2)C(F)(F)F)cc2cc(C(=O)Nc3ccc(Cl)cn3)c(Cl)nc21 (stereo not drawn) [Compound 40] | 83 | 4.88 | efficacy ([2]; 500 g/ha): 100%
CCn1c(C(=O)NC(c2cccc(C(F)(F)F)c2)C(F)(F)F)cc2cc(C(=O)NCC(=O)OC)c(Cl)nc21 (stereo not drawn) [Compound 44] | – | 3.58 | –
C#CCNC(=O)c1cc2cc(C(=O)NC(c3cccc(C(F)(F)F)c3)C(F)(F)F)n(CC)c2nc1Cl (stereo not drawn) [Compound 45] | 100 | 3.69 | –
CCn1c(C(=O)NC(c2ccc(F)c(C(F)(F)F)c2)C(F)(F)F)cc2cc(C(=O)NC3CCC3)c(Cl)nc21 (stereo not drawn) [Compound 46] | 100 | 4.20 | –
CCn1c(C(=O)NC(c2cccc(C(F)(F)F)c2)C(F)(F)F)cc2cc(C(=O)NCc3ncccn3)c(Cl)nc21 (stereo not drawn) [Compound 47] | 100 | 3.39 | –
CCn1c(C(=O)NC(c2cc(Cl)c(F)c(Cl)c2)C(F)(F)F)cc2cc(C(=O)NC3CCC3)c(Cl)nc21 (stereo not drawn) [Compound 48] | – | 4.62 | –
CCn1c(C(=O)NC(c2ccc(F)c(Cl)c2)C(F)(F)F)cc2cc(C(=O)NC3CCC3)c(Cl)nc21 (stereo not drawn) [Compound 49] | – | 4.11 | –
CCn1c(C(=O)NC(c2ccc(F)c(C(F)(F)F)c2)C(F)(F)F)cc2cc(C(=O)NC(C)C)c(Cl)nc21 (stereo not drawn) [Compound 50] | 100 | 4.08 | –

Structure (SMILES) | efficacy ([2]; 100 g/ha) [%] | log p [1, 3] | also measured
CCn1c(C(=O)NC(c2cccc(C(F)(F)F)c2)C(F)(F)F)cc2cc(C(=O)NC)c(Cl)nc21 (stereo not drawn) [Compound 51] | 100 | 3.40 | –
CCNC(=O)c1cc2cc(C(=O)NC(c3cccc(C(F)(F)F)c3)C(F)(F)F)n(CC)c2nc1Cl (stereo not drawn) [Compound 52] | 100 | 3.70 | –
CCn1c(C(=O)NC(c2ccc(Cl)c(Cl)c2)C(F)(F)F)cc2cc(C(=O)NC3CCC3)c(Cl)nc21 (stereo not drawn) [Compound 54] | – | 4.47 | –
CCn1c(C(=O)NC(c2ccc(Cl)c(Cl)c2)C(F)(F)F)cc2cc(C(=O)NC(C)C)c(Cl)nc21 (stereo not drawn) [Compound 56] | – | 4.29 | –
CCn1c(C(=O)NC(c2cc(Cl)c(F)c(Cl)c2)C(F)(F)F)cc2cc(C(=O)NC3(C#N)CC3)c(C(F)(F)F)nc21 (stereo not drawn) [Compound 77] | – | 4.36 | –
CCn1c(C(=O)NC(c2cc(Cl)c(F)c(Cl)c2)C(F)(F)F)cc2cc(C(=O)NC3(C(N)=S)CC3)c(C(F)(F)F)nc21 (stereo not drawn) [Compound 78] | – | 4.25 | –
C#CCn1c(C(=O)NC(c2cc(Cl)c(F)c(Cl)c2)C(F)(F)F)cc2cc(C(=O)NC3CC3)c(C(F)(F)F)nc21 (stereo not drawn) [Compound 79] | – | 4.04 | –
C#CCn1c(C(=O)NC(c2cc(Cl)c(F)c(Cl)c2F)C(F)(F)F)cc2cc(C(=O)NC3(C#N)CC3)c(Cl)nc21 (stereo not drawn) [Compound 80] | – | 3.99 | –
C#CCn1c(C(=O)NC(c2cccc(C(F)(F)F)c2)C(F)(F)F)cc2cc(C(=O)NC3(C#N)CC3)c(C)nc21 (stereo not drawn) [Compound 81] | – | 3.34 | –
CCn1c(C(=O)NC(c2cc(Cl)c(F)c(Cl)c2F)C(F)(F)F)cc2cc(C(=O)NC3(C(N)=S)CC3)c(C(F)(F)F)nc21 (stereo not drawn) [Compound 82] | – | 4.45 | –
CCn1c(C(=O)NC(c2ccc(Cl)c(C(F)(F)F)c2)C(F)(F)F)cc2cc(C(=O)NC3(C#N)CC3)c(Cl)nc21 (stereo not drawn) [Compound 83] | – | 4.02 | –
CCn1c(C(=O)NC(c2ccc(Cl)c(C(F)(F)F)c2)C(F)(F)F)cc2cc(C(=O)NC3(C(N)=S)CC3)c(Cl)nc21 (stereo not drawn) [Compound 84] | – | 3.90 | –
CCn1c(C(=O)NC(c2cc(Cl)c(F)c(Cl)c2)C(F)(F)F)cc2cc(C(=O)NC3CC3)c(C(F)(F)F)nc21 (stereo not drawn) [Compound 86] | – | 4.42 | –
CCn1c(C(=O)NC(c2cc(Cl)c(F)c(Cl)c2F)C(F)(F)F)cc2cc(C(=O)NC3CC3)c(C(F)(F)F)nc21 (stereo not drawn) [Compound 87] | – | 4.66 | –
CCn1c(C(=O)NC(c2ccc(Cl)c(C(F)(F)F)c2)C(F)(F)F)cc2cc(C(=O)NC3CC3)c(Cl)nc21 (stereo not drawn) [Compound 88] | – | 4.06 | –
CCn1c(C(=O)NC(c2ccc(Cl)c(C(F)(F)F)c2)C(F)(F)F)cc2cc(C(=O)NC3(C(N)=S)CC3)c(C)nc21 (stereo not drawn) [Compound 89] | – | 3.72 | –
CCn1c(C(=O)NC(c2ccc(Cl)c(C(F)(F)F)c2)C(F)(F)F)cc2cc(C(=O)NC3(C#N)CC3)c(C)nc21 (stereo not drawn) [Compound 90] | – | 3.91 | –
CCn1c(C(=O)NC(c2ccc(Cl)c(C(F)(F)F)c2)C(F)(F)F)cc2cc(C(=O)NC3CC3)c(C)nc21 (stereo not drawn) [Compound 91] | – | 3.90 | –
CCn1c(C(=O)NC(c2cccc(C(F)(F)F)c2)C(F)(F)F)cc2cc(CNC(=O)C3CC3)c(C)nc21 (stereo not drawn) [Compound 92] | – | 3.59 | –
CCn1c(C(=O)NC(c2ccc(Cl)c(C(F)(F)F)c2)C(F)(F)F)c(Br)c2cc(C(=O)NC3(C(N)=S)CC3)c(C)nc21 (stereo not drawn) [Compound 98] | – | – | chromatographic logP [1, 4]: 3.97
CCn1c(C(=O)NC(c2cccc(C(F)(F)F)c2)C(F)(F)F)cc2cc(C(=O)NC(C)C)c(Cl)cc21 (stereo not drawn) [reference compound] | – | – | percent efficacy (larval mortality) at 20 g/ha [2]: 0%
CCCNC(=O)c1cc2cc(C(=O)NC(c3cccc(C(F)(F)F)c3)C(F)(F)F)n(CC)c2cc1Cl (stereo not drawn) [reference compound] | – | – | percent efficacy (larval mortality) at 20 g/ha [2]: 67%
